Reference: article PMC9939733 (The Journal of Biological Chemistry, 2023)
Positions count from the first letter of the chain named.

Key:
Type in all cases: biochemical
R132H IDH1 [1] = biological target: T1, R132H IDH1 (Homo sapiens, UniProt O75874, R132H); test: Absorbance assay, variant activity in the presence of equimolar 2OG (inhibition screen); parameters: made in house; host or cells: Escherichia coli BL21(DE3) pLyS
Protocol: (§1) Compounds were dispensed using a CyBio SDW-CW CyBi-Well Simultaneous Pipettor and assay started using a ThermoFisher Multidrop Combi reagent dispenser.
(§2) Reactions were performed as technical quadruplicates.

R172K IDH2 [2] = biological target: T2, R172K IDH2 (Homo sapiens, UniProt P48735, R172K); test: as above
T2 construct: made in house; host or cells: Sf21 insect cells (cell pellets prepared at Evotec)
T2 sequence (P48735 40-452 R172K): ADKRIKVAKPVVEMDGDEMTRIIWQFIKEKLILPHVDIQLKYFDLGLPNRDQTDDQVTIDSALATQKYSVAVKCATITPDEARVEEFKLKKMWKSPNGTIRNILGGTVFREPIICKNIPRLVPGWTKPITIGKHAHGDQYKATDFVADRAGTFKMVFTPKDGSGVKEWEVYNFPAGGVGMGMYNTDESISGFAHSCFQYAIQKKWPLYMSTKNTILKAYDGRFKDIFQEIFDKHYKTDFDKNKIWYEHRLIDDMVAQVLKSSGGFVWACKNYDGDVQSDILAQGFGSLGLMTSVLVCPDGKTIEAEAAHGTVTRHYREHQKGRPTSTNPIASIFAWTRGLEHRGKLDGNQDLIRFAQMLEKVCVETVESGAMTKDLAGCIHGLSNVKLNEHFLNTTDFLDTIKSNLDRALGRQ
Protocol: as §1, §2

R140Q IDH2 [3] = biological target: T3, R140Q IDH2 (Homo sapiens, UniProt P48735, R140Q); test: as above
T3 construct: made in house; host or cells: Sf21 insect cells (cell pellets prepared at Evotec)
T3 sequence (P48735 40-452 R140Q): T2 sequence (P48735 40-452 R172K) with R101Q, K133R
Protocol: as §1, §2

R132H IDH1 [4] = biological target: T1, R132H IDH1; test: Absorbance assay (NADPH consumption), substrate turnover in the absence of 2OG; parameters: made in house; host or cells: Escherichia coli BL21(DE3) pLyS
Protocol: as §1, §2

R172K IDH2 [5] = biological target: T2, R172K IDH2; test: as above
Protocol: as §1, §2

R140Q IDH2 [6] = biological target: T3, R140Q IDH2; test: as above
Protocol: as §1, §2

WT IDH1 [7] = biological target: T4, WT IDH1 (Homo sapiens, UniProt O75874); test: Absorbance assay, WT activity in the presence of equimolar DL-isocitrate (inhibition)
T4 construct: made in house; host or cells: Escherichia coli BL21(DE3) pLyS
Protocol: as §1, §2

WT IDH2 [8] = biological target: T5, WT IDH2 (Homo sapiens, UniProt P48735); test: as above; conditions: […] isocitrate and […] test compound, 75 μM NADP+, 2.0 nM WT IDH2
T5 construct: made in house; host or cells: Sf21 insect cells (cell pellets prepared at Evotec)
T5 sequence (P48735 40-452): T2 sequence (P48735 40-452 R172K) with K133R
Protocol: as §1, §2

WT IDH1 [9] = biological target: T4, WT IDH1; test: Absorbance assay, substrate activity in the absence of DL-isocitrate; conditions: no DL-isocitrate; […] test compound, 75 μM NADP+, 2.0 nM WT IDH1; compared to DL-isocitrate
Protocol: as §1, §2

WT IDH2 [10] = biological target: T5, WT IDH2; test: as above; conditions: no DL-isocitrate; […] test compound, 75 μM NADP+, 2.0 nM WT IDH2; compared to DL-isocitrate
Protocol: as §1, §2

[11] = […] 2OG and […] test compound, 0.03 μM R132H IDH1, 50 μM NADPH
[12] = 1.0 mM 2OG and 1.0 mM test compound, 0.03 μM R172K IDH2, 50 μM NADPH
[13] = 6.0 mM 2OG and 6.0 mM test compound, 0.03 μM R140Q IDH2, 50 μM NADPH
[14] = no 2OG, […] test compound, 0.03 μM R132H IDH1, 50 μM NADPH, 2OG = 100
[15] = no 2OG, 1.0 mM test compound, 0.03 μM R172K IDH2, 50 μM NADPH, 2OG = 100
[16] = no 2OG, 6.0 mM test compound, 0.03 μM R140Q IDH2, 50 μM NADPH, 2OG = 100
[17] = […] isocitrate and […] test compound, 75 μM NADP+, 2.0 nM WT IDH1

T1 sequence (O75874 whole entry R132H): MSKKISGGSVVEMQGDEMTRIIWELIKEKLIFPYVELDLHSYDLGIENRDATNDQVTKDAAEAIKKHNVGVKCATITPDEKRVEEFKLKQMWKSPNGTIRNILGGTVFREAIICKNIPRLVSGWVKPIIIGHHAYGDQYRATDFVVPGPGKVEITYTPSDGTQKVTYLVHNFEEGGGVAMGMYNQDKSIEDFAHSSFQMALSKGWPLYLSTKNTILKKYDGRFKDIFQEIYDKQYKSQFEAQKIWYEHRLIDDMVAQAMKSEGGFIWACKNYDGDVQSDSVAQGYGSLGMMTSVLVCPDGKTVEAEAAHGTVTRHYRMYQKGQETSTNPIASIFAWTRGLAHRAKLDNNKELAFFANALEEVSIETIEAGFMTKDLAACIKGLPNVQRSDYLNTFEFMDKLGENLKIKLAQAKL
T4 sequence (O75874 whole entry): as the sequence (O75874 whole entry R132H) above, with H132R counted along it

| Structure (SMILES) | activity [%] (%-substrate conversion after 20 min incubation) (R132H IDH1 [1]; [11]) | activity [%] (%-substrate conversion after 20 min incubation) (R172K IDH2 [2]; [12]) | activity [%] (%-substrate conversion after 20 min incubation) (R140Q IDH2 [3]; [13]) | activity [%] (%-substrate conversion after 20 min incubation) (R132H IDH1 [4]; [14]) | activity [%] (%-substrate conversion after 20 min incubation) (R172K IDH2 [5]; [15]) | activity [%] (%-substrate conversion after 20 min incubation) (R140Q IDH2 [6]; [16]) | activity [%] (%-substrate conversion after 20 min incubation) (WT IDH1 [7]; [17]) | activity [%] (%-substrate conversion after 20 min incubation) (R132H IDH1 [1]) | activity [%] (%-substrate conversion after 20 min incubation) (R172K IDH2 [2]) | activity [%] (%-substrate conversion after 20 min incubation) (R140Q IDH2 [3]) | activity [%] (%-substrate conversion after 20 min incubation) (R132H IDH1 [4]) | activity [%] (%-substrate conversion after 20 min incubation) (R172K IDH2 [5]) | activity [%] (%-substrate conversion after 20 min incubation) (R140Q IDH2 [6]) | activity [%] (%-substrate conversion after 20 min incubation) (WT IDH2 [8]) | activity [%] (%-substrate conversion after 20 min incubation) (WT IDH1 [9]) | activity [%] (%-substrate conversion after 20 min incubation) (WT IDH2 [10]) | activity [%] (%-substrate conversion after 20 min incubation) (WT IDH1 [7]) |
| --- | --- | --- | --- | --- | --- | --- | --- | --- | --- | --- | --- | --- | --- | --- | --- | --- | --- |
| O=C[C@H](O)[C@@H](O)[C@H](O)[C@H](O)C(=O)O [D-glucuronic acid] | 104 ± 4 | 101 ± 2 | 112 ± 7 | < 10 | < 10 | < 10 | 106 ± 2 | – | – | – | – | – | – | – | – | – | – |
| O=C(O)CC(=O)CC(=O)O [3-oxoglutaric acid] | 95 ± 2 | 100 ± 4 | 109 ± 3 | < 10 | < 10 | < 10 | 103 ± 3 | – | – | – | – | – | – | – | – | – | – |
| O=C(O)CC(C(=O)O)C(O)C(=O)O (racemic) [DL-isocitric acid] | – | – | – | – | – | – | – | 78 ± 5 | 71 ± 5 | 64 ± 3 | < 10 | < 10 | < 10 | – | – | – | – |
| O=C(O)C(=O)Cc1c[nH]c2ccccc12 [indole-3-pyruvic acid] | 81 ± 6 | 87 ± 10 | – | < 10 | < 10 | – | 88 ± 2 | – | – | – | – | – | – | 89 ± 1 | – | – | – |
| CCCCC(CC(=O)C(=O)O)C(=O)O (racemic) [compound 16] | 113 ± 4 | 100 ± 5 | 131 ± 9 | – | – | – | 102±3 | – | – | – | – | – | – | 100±2 | < 10 | < 10 | – |
| O=C(O)/C=C(/CC(=O)O)C(=O)O [cis-aconitic acid] | – | – | – | – | – | – | – | 100 ± 2 | 99 ± 7 | 119 ± 12 | < 10 | < 10 | < 10 | – | – | – | 101 ± 2 |
| O=C(O)CCCC(=O)C(=O)O [2-oxoadipic acid] | 115 ± 8 | 96 ± 18 | 94 ± 8 | < 10 | < 10 | < 10 | 108 ± 8 | – | – | – | – | – | – | – | – | – | – |
| CCC(CC(=O)C(=O)O)C(=O)O (racemic) [compound 14] | 103 ± 2 | 112 ± 13 | 117 ± 9 | – | – | – | 94±1 | – | – | – | – | – | – | 98±3 | < 10 | < 10 | – |
| NC(CCC(=O)O)C(=O)O (racemic) [DL-glutamic acid] | 83 ± 5 | 93 ± 5 | 94 ± 9 | < 10 | < 10 | < 10 | 94 ± 7 | – | – | – | – | – | – | – | – | – | – |
| O=C(O)C(=O)C1CC1C(=O)O (mixture of isomers) [compound 21] | 132 ± 3 | 110 ± 4 | 394 ± 40 | – | – | – | 96±1 | – | – | – | – | – | – | 95±2 | < 10 | < 10 | – |
| O=C(O)C(=O)CC(Cc1ccc2ccccc2c1)C(=O)O (racemic) [compound 20] | 31 ± 2 | 51 ± 1 | 73 ± 4 | – | – | – | 97±3 | – | – | – | – | – | – | 97±4 | < 10 | < 10 | – |
